Assay [1] deals with GM-DCs or FL-DCs. Briefly: Cytokine production (ELISA) by murine GM-DCs or FL-DCs with Aspergillus conidia. The format is cell-based, mouse. An excerpt:
GM-DCs or FL-DCs were obtained from purified CD14+ monocytes from healthy donors or transplanted patients (1 month post-HSCT) cultured in Iscove's modified medium for 7-9 days, in the presence of rGM-CSF (Schering-Plough, Milan, Italy) and rIL-4 (Peprotech, Inalco, Milan, Italy) or FLT3-L (Immunex Corporation, Seattle, Wash.) (Blood. 2004; 103:4232-4239). DC recovery was between 20-30% reduced in cultures from transplanted patients. Murine GM-DCs or FL-DCs were obtained from bone marrow cells for 7-9 days, as described (Blood. 2004; 103:4232-4239). Thymosin alpha 1 and sThymosin alpha 1 were added to the cultures at 20 ng/mL. DCs (>99% CD11c+ consisting of 90-95% CD8-, 5-10% CD8+, and 1-5% B220+ cells) were purified from spleens (spDCs) by magnetic-activated sorting using CD11c MicroBeads and MidiMacs (Miltenyi Biotech). DC populations were further separated into CD8−, CD8+ and B220+ fractions by means of CD8 or B220 MicroBeads (Miltenyi Biotech). DCs were pulsed in serum-free Iscove medium for 24 hours with live unopsonized Aspergillus conidia or Zymosan from Saccharomyces cerevisiae (Sigma) or CpG-ODN 2006 as described.7 Phagocytosis was done as described (Blood. 2004; 103:4232-4239). Photographs were taken using a high Resolution Microscopy Color Camera AxioCam, using the AxioVision Software Rel. 3.1 (Carl Zeiss, Milan, Italy).
Cytokine content was assessed by enzyme-linked immunosorbent assays (Endogen Human Elisa Kits, R&D Systems and Euroclone, Milan, Italy). AID EliSpot assay kits (Amplimedical, Buttigliera Alta, Turin, Italy) were used on purified splenic CD4+ Tcells cocultured with conidia-pulsed DCs for 5 days to enumerate cytokine-producing cells (Blood. 2003; 102:3807-3814). 1-MT was used at 2 μM.
(B) Cytokine production (ELISA) by GM-DCs or FL-DCs cultured in serum-free medium (1×10^6 cells/mL) with unopsonized Aspergillus conidia (5×10^5/mL) for 24 hours. The IDO inhibitor 1-MT was added at 2 μM. Data are aggregated results from three independent experiments. The detection limits (pg/mL) of the assays were <16 for IL-12p70 and <12 for IL-10.
Background: In an ELISA, binding on a coated surface is turned into a signal by an enzyme label.

Assay [2] deals with TLN CD4+ T lymphocytes, neutrophils. In words: Proliferation of TLN cells and suppressive activity of CD4+CD25+ T reg cells from DC-treated HSCT mice. The format is in vivo, mouse. How it is done:
IDO expression and functional activity were assessed as described in Nat. Immunol. 2002; 3:1097-1101. Generation, purification and activity of T reg cells Splenic CD4+ T-cells were cocultured with conidia-pulsed DCs for 5 days […] before flow cytometry or ELISPOT assay. 1-MT (Sigma-Aldrich) was used at 2 μM. CD4+CD25+ and CD4+CD25− cells (>90% pure on FACS analysis) were separated by magnetic cell sorting from lung and TLN (J. Immunol. 2006; 176:1712-1723). For T reg cell inhibition, 5×10^4 TLN T reg cells were added to 3×10^5 CD4+CD25− cells, both from transplanted mice, stimulated with 3×10^4 autologous Aspergillus conidia-pulsed spDCs or with or 1.5×10^5 allogeneic spDCs from naïve donor mice for five days before H^3-thymidine labeling. Purified peritoneal CD 11b+Gr−1+PMN (>98% pure on FACS analysis) (2×10^6) were exposed to resting conidia in the presence of 4×10^5 CD4+CD25+ for 60 min for oxidant production or 24 hours for cytokine production (J. Immunol. 2006; 176:1712-1723).
Mice received twice intraperitoneal injections of DCs, at weekly interval, starting a day after HSCT and infected a week after the last DC administration. Three days later, lung homogenates, CD4+ T cells (>98% on FACS analysis), CD4+CD25− (>98%) or CD4+CD25+ (>82%) purified with the specific Miltenyi Biotec isolation kits were assessed for pattern of pro- and anti-inflammatory (TNF-a/IL-10 in lung homogenates), Th1 (IFN-γ) or Th2 (IL-4) cytokine production by CD4+ cells stimulated with Aspergillus-pulsed DCs (Blood. 2003; 102:3807-3814) frequency of CD25+ IL-10^+ TGF-β+ T reg cells, lymphoproliferation and gene expression by RT-PCR. For proliferation, TLN CD4+ T lymphocytes were plated (10^5 cells/well) with 10^5 cells/well irradiated allogeneic splenocytes or autologous spDCs pulsed with conidia or 10 μg/mL Con A for five days before H^3-thymidine labeling.
(A) Murine CD4+ T lymphocytes from TLN of transplanted mice were stimulated with irradiated allogeneic splenocytes, autologous splenic DCs stimulated with conidia or Concanavalin A. T cell proliferation was assessed in a 5-day MLR assay and measured by H^3thymidine incorporation over the last 8 hours, (*) P<0.05, transplanted versus donor mice. (**) P<0.05, T cell- and/or DC-treated mice versus untreated mice. (***) P<0.05, Thymosin alpha 1-treated DCs versus untreated DCs. […] (D) Peritoneal neutrophils (PMN) were exposed to resting conidia in the presence of lung CD4+CD25+ T cells from FL-DCtreated (a) or Thymosin alpha 1-GM-DC-treated mice (b) for 60 min (for oxidant production, expressed as nanomoles O2-/10^6 cells) or 24 hours for cytokine production (pg/mL by ELISA). […]

[3] abbreviates: in response to Aspergillus conidia, 24 hours.
Where [4] appears, read: mice receiving Thymosin alpha 1-treated GM-DCs.

No end group written: not given here.

For “Thymosin alpha 1: naturally occurring thymic peptide; supplied as purified, endotoxin-free sterile lyophilized acetylated polypeptide from SciClone Pharmaceuticals (Ac-SDAAVDTSSEITTKDLKEKKEVVEEAEN; UniProt P06454 2-29, looked up)”, the “IL-10 production by cells from TLR9-/- or IFN-aβR-/- mice” value in assay [1] (GM-DCs or FL-DCs, in response to Thymosin alpha 1) is recorded as “did not occur”. In assay [1] (setting [3]), the “release of IL-10 and IL-12 by FL-DCs” value is “IL-10, more than IL-12”; the “release of IL-12 and IL-10 by GM-DCs” value was “induced release of IL-12 and IL-10”. In assay [2] (T reg fraction induced by Thymosin alpha 1-treated GM-DCs), the “TNF-a and oxidant production of neutrophils in the presence of lung T reg cells” value is listed as “significantly inhibited”. In addition, in assay [2] (T reg from mice receiving Thymosin alpha 1-treated GM-DCs), the “alloreactivity and antigen-specific responses of CD4+CD25- T cells in the presence of CD4+CD25+ T cells” value is recorded as “both reduced”. Moreover, in assay [2] (setting [4]), the “alloreactivity (proliferation of TLN cells to allogeneic splenocytes)” value is recorded as “decreased” and the “pathogen-specific reactivity (proliferation to Aspergillus conidia)” value is listed as “recovered”.
